Experimental data as given in US7521540B2, “CYR61 compositions and methods” (Munin Corporation, priority 1996, dated 2009).
Where “and” joins values, the source holds several entries; their conditions need not be identical. Identical values can stand only once.

Legend:
endothelial cells [1] = assay: Peptide inhibition of cell adhesion to Cyr61, endothelial cells; type: cell-based
Description: (§1) To localize the relevant domain still further, several overlapping peptides were synthesized. The peptides, each having a sequence set forth in one of SEQ ID NOS:33-38, show significant similarity to an ECM signaling molecule such as mouse Cyr61 (SEQ ID NO:2) or human Cyr61 (SEQ ID NO:4). These peptides were then separately tested for their capacities to inhibit Cyr61 adhesion to endothelial cells or fibroblasts. Peptides were separately added at various concentrations to Cyr61-coated wells containing endothelial cells or fibroblasts, as described above. The peptide designated TSP1 (SEQ ID NO:33) inhibited Cyr61 adhesion to endothelial cells or fibroblasts at concentrations of 25 μM or higher.
To determine if TSP1 was selectively inhibiting Cyr61 binding to […] or α6β1, two integrins found on endothelial cells that bind Cyr61, specific monoclonal antibody blocking studies were performed. These studies involved the separate addition of monoclonal antibody GoH3 (α6-specific, including α6β1; see Example 29) or LM609 ([…]; see Example 29) to cells prior to addition of the mixture to Cyr61-coated wells in the presence or absence of the peptide under study.

endothelial cells [2] = assay: Adhesion to immobilized peptides or GST-domain fusions, endothelial cells; type: cell-based; settings: no immobilized Cyr61
Description: (§2) To further localize domains involved in angiogenesis, including endothelial cell migration, the coding regions for domains I, II and III of Cyr61 were separately fused to a coding sequence for glutathione S-transferase (GST), again using conventional technology. The individual fusion constructs were introduced into bacterial hosts, expressed, and purified with glutathione columns, using conventional techniques.
(§3) To confirm that the TSP1 peptide was inhibiting Cyr61 activity by directly interacting with the α6β1, integrin, TSP1 and the peptides collectively having SEQ ID NOS:34-38 were used in the aforementioned cell adhesion assay in the absence of immobilized Cyr61. In these assays, wells were coated with one of the peptides and the immobilized peptides were then separately exposed to either endothelial cells (resting or activated) or fibroblasts. […] None of the other tested peptides (having SEQ ID NOS:34-38, collectively) supported cell adhesion in these assays. However, it is expected that peptides comprising sequences from domain II (von Willebrand Factor domain) of Cyr61 will inhibit the interaction between Cyr61 and the αVβ3 integrin receptor, thereby inhibiting the participation of endothelial cells in the process of angiogenesis. […]

fibroblasts [3] = assay: Peptide inhibition of cell adhesion to Cyr61, fibroblasts; type: cell-based; settings: Cyr61-coated wells
Description: as §1

endothelial cells [4] = assay: Matrigel tubule formation assay; type: cell-based
Description: Endothelial cells interacting with Cyr61 require integrin αVβ3 for cell migration and cell survival. However, to form tubules in vitro in a matrigel, integrin α6β1 is required. Thus, the ability of TSP1 to inhibit tubule formation in vitro using a matrigel assay as described in Example 15 (and as known in the art, Davis et al., Exp. Cell Research 216:113-123 (1995), incorporated herein by reference in its entirety) was performed.

fibroblasts [5] = assay: Adhesion to immobilized peptides or GST-domain fusions, fibroblasts; type: cell-based; settings: no immobilized Cyr61
Description: as §2, §3

[6] = tested on: 1064SK primary human foreskin fibroblasts; assay: Fibroblast adhesion assay (methylene blue, A620); type: cell-based
Description: The ability of Cyr61 to mediate cell adhesion in normal fibroblasts was investigated. Microtiter wells were coated with purified recombinant Cyr61 protein, and 1064SK primary human foreskin fibroblasts were allowed to adhere under serum-free conditions. […] 50 μl cell suspensions were plated on microtiter wells coated with varying concentrations (0.5-5.0 μg/ml) of Cyr61 protein. After incubation at 37° C. for 30 minutes, adherent cells were fixed and stained with methylene blue.
In another experiment, microtiter wells were coated with either BSA, Cyr61 (2 μg/ml), or vitronectin (VN; 0.5 μg/ml) and blocked with affinity-purified anti-Cyr61 antibodies for one hour at 37° C. before 1064SK cells were plated.
The effects of divalent cations in cell adhesion to Cyr61 was also investigated. […] Data are means from triplicate determinations. […] Inhibition by Ca^2+ is characteristic of adhesion through some members of the β1 family of integrins, including receptors that bind type I collagen, laminin, and vitronectin (integrins α2β1, α6β1, and αVβ1) in fibroblasts, as well as the lymphocyte-specific integrin αLβ2.
The effects of RGD peptides on Cyr61-mediated fibroblast binding was tested by plating cells in wells coated with Cyr61 (2 μg/ml). Type I collagen (2 μg/ml) or vitronectin (0.5 μg/ml), 2 mM GRGDSP or GRGESP peptide was then added.
Cells were also pre-incubated with 40 μg/ml monoclonal antibodies against the integrin α5 or the integrin αV subunits at room temperature for 30 minutes, then plated on wells coated with Cyr61 (2 μg/ml), vitronectin (0.5 μg/ml) or fibronectin (FN, 1 μg/ml). […] The data are means, representative of three experiments.
The 1064 SK cells were also analyzed using the monoclonal antibody JBIA, which binds the β1 integrin subunit. Cells were pre-incubated with the antibody (50 μg/ml) before plating on microtiter wells coated with Cyr61 (2 μg/ml), Type I collagen (2 μg/ml), or vitronectin (0.5 μg/ml). […] Data are means, representative of three experiments.
To identify the specific β1 integrin that mediates fibroblast adhesion to Cyr61, the inhibitory effects of function-blocking monoclonal antibodies were tested against various integrin α subunits. […] The data are means, representative of at least three experiments.

endothelial cells [7] = settings: thrombospondin on endothelial cells; fibronectin cell type not stated; cited from earlier work
Limb mesenchymal cells [8] = assay: Limb bud mesenchymal cell attachment; type: cell-based, mouse; settings: within 1 hour of plating
Description: Cyr61, fibronectin (Gibco), or tenascin (Gibco) were diluted in 0.1% protease-free bovine serum albumin (BSA) in PBS with 0.5 mM PMSF, to a final concentrations of 10 or 50 μg/ml. A 10 μl drop/well was placed in a non-tissue culture treated 24-well plate (Corning), and incubated at room temperature for 2 hours. The wells were blocked with 1% BSA in PBS for 1 hour at room temperature, and rinsed with serum-free MEM (Modified Eagle's Medium). Limb mesenchymal cells, suspended at 5×10^5 cell/ml in serum-free MEM, were added at a volume of 400 μl/well, and incubated at 37° C., 5% CO2 for 1 or 3 hours. At each time point, the cell suspension was removed, the wells were rinsed with MEM and the remaining adherent cells were photographed.

HUVE cells = assay: HUVE cell attachment to murine Cyr61-coated plates; type: cell-based, human
Description: Another embodiment of the invention is directed to the use of Cyr61 to mediate cellular attachment to the extracellular matrix. Induction of cellular adhesion was investigated using murine Cyr61, fibronectin, and bovine serum albumin (BSA). Immunological 96-well plates (Falcon brand) were coated with 50 μl of 0.1% BSA in PBS at 4° C. in the presence of 0-30 μg/ml concentrations of murine Cyr61 or fibronectin. After two hours exposure to the coating solution, non-diluted immune or pre-immune antisera (30 μl/well), or affinity-purified anti-Cyr61 antibodies were added. For some wells, the coating mixture was adjusted to 10 mM DTT or 100 mM HCl. After 16 hours incubation, the coating solution was removed and the well surface was blocked with 1% BSA in phosphate-buffered saline (PBS) for 1 hour at room temperature. HUVE cells were plated in Ham's complete F12K medium [GIBCO-BRL, Inc.; Ham, Proc. Natl. Acacd. Sci. (USA) 53:786 (1965)] at 5×10^3-10^4 cells/well. Cycloheximide was added to 100 μg/ml immediately before plating and monensin was added to 1 μM 14 hours before plating. After a 2-hour incubation at 37° C., the wells were washed with PBS and attached cells were fixed and stained with methylene blue. The attachment efficiency was determined by quantitative dye extraction and measurement of the extract absorbance at 650 nm. Oliver et al., J. Cell. Sci. 92:513-518 (1989).

[9] = tested on: Bovine aortic smooth muscle cells (BASM cells); assay: Smooth muscle cell adhesion assay; type: cell-based
Description: Cell adhesion assays were also performed on smooth muscle cells. Bovine aortic smooth muscle cells (BASM cells) were subjected to the cell adhesion assay described above in the context of assaying fibroblasts. […] To identify particular integrin, receptors mediating the Cyr61 induction of BASM cell adhesion, antibody studies were conducted using anti-integrin antibodies recognizing specific integrins. […] Thus, integrin α6β1 mediates Cyr61-induced adhesion of smooth muscle cells. It is expected that Cyr61 polypeptides that include the heparan binding domain IV will induce adhesion of any mammalian smooth muscle cell.

Limb mesenchymal cells [10] = settings: 10 μg/ml, literature; cited from earlier work

Substance: H 2N-GQKCIVQTTSWSQCSKS-CO2H (H-GQKCIVQTTSWSQCSKS-OH; cysteine pairing not given here) [TSP1]
- concentration inhibiting Cyr61 adhesion to endothelial cells (endothelial cells [1]; Cyr61-coated wells): ≥ 25 µM
- effect on Cyr61 binding to the α6β1 integrin (endothelial cells [1]; GoH3/LM609 blocking studies): inhibitied Cyr61 binding to the α6β1 integrin
- effect on Cyr61 binding to αVβ3 (endothelial cells [1]; GoH3/LM609 blocking studies): did not inhibit Cyr61 binding to αVβ3
- adhesion of endothelial cells to immobilized peptide or fusion (endothelial cells [2]): supported adhesion of endothelial cells and fibroblasts
- concentration inhibiting Cyr61 adhesion to fibroblasts (fibroblasts [3]): ≥ 25 µM
- tubule formation in matrigel (endothelial cells [4]): inhibited tubule formation
- adhesion of fibroblasts to immobilized peptide or fusion (fibroblasts [5]): supported adhesion of endothelial cells and fibroblasts

Substance: fibronectin
- 1064SK adhesion to coated protein, nothing added ([6]; Cyr61 2, VN 0.5, Type I collagen 2, fibronectin 1, laminin 5 μg/ml): 0.72 A620 and 0.74 A620
- concentration with chemotactic effect (endothelial cells [7]): 1 to 30 µg/mL
- attachment morphology of limb mesenchymal cells (Limb mesenchymal cells [8]): attached uniformly and started to spread
- HUVE cell attachment, A650 (HUVE cells; coating 1 μg/ml): 0.1 A650
- HUVE cell attachment, A650 (HUVE cells; coating 30 μg/ml): 0.9 A650

Substance: heparin
- effect of agent on Cyr61-induced BASM cell adhesion [9]: inhibited Cyr61-induced adhesion
- levels having no effect on cell adhesion to fibronectin ([6]; fibronectin 1 μg/ml): up to 1000 μg/ml
- level completely inhibiting cell adhesion to Cyr61 ([6]; soluble, in cell suspension): ≥ 0.1 µg/mL
- level that detectably inhibited binding to Cyr61 ([6]; soluble, in cell suspension): 1 ng/mL
- increase of chondrogenesis in micromass cultures (Limb mesenchymal cells [10]): 2 fold
